Measurements reported in patent US20140005188A1, “PYRIDO[3,4-B]PYRAZINE DERIVATIVES AS SYK INHIBITORS” (GLAXO GROUP LIMITED, priority 2011, published 2014).
Where a name gives a salt, the structure may show the parent alone.

Tests used:
[1] = molecular target: T1, SYK (Homo sapiens, UniProt P43405); assay: biochemical; settings: SYK lysate from anti-IgM stimulated Ramos B cells, Y7 Sox peptide 5 μM, ATP 35 μM; read-out: average plC50
T1 construct: The cell pellet was then lysed in ice-cold lysis buffer containing 1% triton-x-100; endogenous in cells; host or cells: Ramos B cells (human Burkitt's lymphoma, clone 296.4C10, ATCC), stimulated with anti-IgM antibody, clarified Triton X-100 lysate
Procedure: 1. Basic SYK Enzyme Activity
3 μl of SYK lysate diluted 16-fold in assay buffer (20 mM TRIS pH 7.4, 0.01% BSA, 0.1% Pluronic F-68) was added to wells containing 0.1 μl of various concentrations of compound or DMSO vehicle (1.7% final) in a Greiner low volume 384 well black plate. […]
i. Preparation of Ramos Cell Lysates
Cells were grown in Corning Cellstacks (6360 cm^2) in 1 litre volume and viability and cell density were monitored daily. Cells were maintained at <1.5×10e6/ml and >92% viability ii. Stimulation of Ramos Cells with Anti-IgM Ab to Produce Syk & Preparation of Lysates Cells were stimulated at 20×10^6 cells/ml using 15 ug/ml (final concentration) anti-IgM antibody. Following harvest (as described above), a total of 4×10^9 cells were resuspended in 180 mls pre-warmed (37° C.) DPBS in a Corning 500 ml centrifuge bottle. 20 mls anti-IgM antibody at 150 ug/ml were added to each 500 ml centrifuge bottle. (working stock made up in DPBS pre-warmed to 37° C.). Cells were incubated for exactly 5 minutes at 37° C. following the addition of anti IgM antibody. Following 5 minutes stimulation, 300 mls ice-cold DPBS were added to each bottle to stop the stimulation (temperature drops to ˜12 deg C.) then cells were centrifuged at 2000 rpm (Sorvall Legend RT+centrifuge—pre-chilled to 4 deg C.). Cells were washed by resuspension in ice-cold DPBS and centrifugation as above. The cell pellet was then lysed in ice-cold lysis buffer containing 1% triton-x-100 at a ratio of 150 ul/1×10^7 cells (i.e. […] lysis buffer). Following the addition of lysis buffer, the cells were pipetted up & down & kept on ice for 15 minutes. The clarified lysate was then obtained by centrifugation (Sorvall Evolution RC (SLA-1500 rotor, ˜20,000 g (˜14,500 rpm), 45 min, 4° C.).
Lysate was aliquoted, snap-frozen on dry-ice & stored at −80° C. prior to assay.

[2] = cited from earlier work
[3] = test system: B lymphoma (BKS-2); settings: murine BKS-2 B lymphoma model; cited from earlier work

| Structure (SMILES) | IC50 [1] | also measured |
| --- | --- | --- |
| Cc1noc(C)c1-c1cc2nccnc2c(NCC2(F)CCCNC2)n1 (stereo not drawn) [Example 157, 7-(dimethyl-1,2-oxazol-4-yl)-N-[(3-fluoropiperidin-3-yl)methyl]pyrido[3,4-b]pyrazin-5-amine hydrochloride] | ≤ 10 µM | – |
| Fc1ccc(-c2cc3nccnc3c(NCC3(F)CCCNC3)n2)c(F)c1 (stereo not drawn) [Example 166, 7-(2,4-difluorophenyl)-N-[(3-fluoropiperidin-3-yl)methyl]pyrido[3,4-b]pyrazin-5-amine] | ≤ 10 µM | – |
| COc1cc(Nc2ncc(F)c(Nc3ccc4c(n3)N(COP(=O)(O)O)C(=O)C(C)(C)O4)n2)cc(OC)c1OC [Example R788, fostamatinib disodium] | – | therapeutic benefit ([2]; patients with DLBCL and CLL/SLL): therapeutic benefit; tolerability ([2]; patients with relapsed or refractory B-Cell NHL): well-tolerated |
| COc1cc(/C=C/C(=O)CC(=O)/C=C/c2ccc(O)c(OC)c2)ccc1O [curcumin] | – | tumour burden as measured by the total splenocyte number [3]: significant reduction |

Further lines, with some results ahead:

| IC50 [1] | Structure (SMILES) | also measured |
| --- | --- | --- |
| ≤ 10 µM | CC1CCC(CNc2nc(-c3cnn(C)c3)cc3nccnc23)CN1 (single isomer, unassigned) [Example 176, 7-(1-methyl-1H-pyrazol-4-yl)-N-[(6-methylpiperidin-3-yl)methyl]pyrido[3,4-b]pyrazin-5-amine hydrochloride, single unknown enantiomer] | – |
| ≤ 10 µM | O=C1CN(c2cc3nccnc3c(NC[C@H]3CCCNC3)n2)CCN1 [Example 30, 4-(5-{[(3S)-3-piperidinylmethyl]amino}pyrido[3,4-b]pyrazin-7-yl)-2-piperazinone, hydrochloride] | – |
| ≤ 10 µM | Cn1nccc1-c1cc2nccnc2c(NC[C@@H]2CNCCO2)n1 [Example 92, 7-(1-methyl-1H-pyrazol-5-yl)-N-[(2S)-morpholin-2-ylmethyl]pyrido[3,4-b]pyrazin-5-amine hydrochloride] | – |
| ≤ 10 µM | COc1cncc(-c2cc3nccnc3c(NCC3(F)CCCNC3)n2)c1 (stereo not drawn) [Example 128, N-[(3-fluoropiperidin-3-yl)methyl]-7-(5-methoxypyridin-3-yl)pyrido[3,4-b]pyrazin-5-amine] | – |
